Consider six molecules from patent publication US7727995B2, “Antiherpes drug combinations” (University of Massachusetts, priority 2003, dated 2010).

Like-named read-outs stand apart in the source and are kept apart here. Marks after values point to notes of the source that are not given here.

One assay has as its system McKrae strain of HSV-1. The experiment in a line: Inhibition of HSV encephalitis in mice, HSV-1 infection. The class given is in vivo. As for the experimental part:
(§1) BALB/c female mice at 6 weeks of age were anesthetized, their corneas lightly scratched with a 27-gauge needle, and 3 μl of infectious virus (McKrae strain of HSV-1 or G strain of HSV-2; 5×10^5 PFU) was placed on each cornea. At the time of infection, groups of ten animals were given 0.1 ml injections i.p. of vehicle (corn oil) or test drug or drug combination (e.g., HBPG or foscarnet or both) in vehicle at indicated concentrations, and the animals were returned to their cages and allowed to recover from anesthesia. Treatment was repeated by a regimen optimal for the drug combination and dose. Animals were observed daily for 30 days, and the day of death of each animal was recorded.

For a further assay, the system named is G strain of HSV-2. Description: Inhibition of HSV encephalitis in mice, HSV-2 infection. It counts as in vivo. Here is the method: as §1
In assay [1] the test system is HSV1. The following applies: cited from earlier work.
The test system of another assay is HSV2. The following applies: mice, cited from earlier work.
Assay [2] deals with HSV1. The following applies: cited from earlier work. The source holds these as a separate data set.
Assay [3] has as its system HSV1. The following applies: 150 μM; trigeminal ganglia of HSV1 latent mice on Vero cells; cited from earlier work.
Setting [4] is: HSV1, 25 mg/kg ip in corn oil, twice daily for five days.
Where [5] appears, read: HSV1, 50 mg/kg ip in corn oil, twice daily for five days.
Where [6] appears, read: Table 5, HSV1, 100 mg/kg ip in corn oil, twice daily for five days.
Setting [7] is: HSV1, 100 mg/kg ip twice daily, 5 days, observed 30 days.
Where [8] appears, read: HSV1, 200 mg/kg ip twice daily, 5 days.
Setting [9] is: HSV1, 400 mg/kg ip twice daily, 5 days.
Setting [10] is: HSV2, 100 mg/kg ip twice daily, 5 days.
[11] abbreviates: HSV2, 200 mg/kg ip twice daily, 5 days.
Setting [12] is: HSV2, 400 mg/kg ip twice daily, 5 days.
Setting [13] is: Table 2, HSV2, 50 mg/kg ip, bid, 5 d.
Setting [14] is: Table 2, HSV2, 100 mg/kg ip, bid, 5 d.
The mark [15] stands for this setting: HSV1, 1 mg/kg ip in corn oil, twice daily for five days.
[16] abbreviates: HSV1, 2.5 mg/kg ip in corn oil, twice daily for five days.
Where [17] appears, read: HSV1, 5 mg/kg ip in corn oil, twice daily for five days.
[18] abbreviates: HSV2, 1 mg/kg ip in corn oil, twice daily for five days.
The mark [19] stands for this setting: HSV2, 2.5 mg/kg ip in corn oil, twice daily for five days.
The mark [20] stands for this setting: HSV2, 5 mg/kg ip in corn oil, twice daily for five days.

For the molecule `Nc1nc2c(ncn2COCCO)c(=O)[nH]1` [acyclovir], the results for the Survivors/treated with McKrae strain of HSV-1 (setting [4]), in the assay on McKrae strain of HSV-1 (setting [5]) and in the assay with McKrae strain of HSV-1 (setting [6]) were 1/10, 3/10 and 7/10, respectively. Also, the entries for the “Survivors/treated (%)” value in the assay on McKrae strain of HSV-1 (setting [4]), in the assay on McKrae strain of HSV-1 (setting [5]) and in the assay with McKrae strain of HSV-1 (setting [6]) were 10%, 30% and 70%, respectively.

On to `O=c1[nH]c(Nc2ccccc2)nc2c1ncn2CCCCO` [HBPG, 2-phenylamino-6-oxo-9-(4-hydroxybutyl)purine], for which the Survivors/treated in the assay with McKrae strain of HSV-1 (setting [7]) is on record as 1/10; with McKrae strain of HSV-1 (setting [8]) it was 6/10*; in the assay on McKrae strain of HSV-1 (setting [9]) it was 9/10*; in the assay with G strain of HSV-2 (setting [10]), 3/10; in the assay on G strain of HSV-2 (setting [11]) it was 10/10*; with G strain of HSV-2 (setting [12]) it was 9/10*. For the same molecule, the Survivors/treated in the assay on G strain of HSV-2 (setting [13]) is 1/10; in the assay on G strain of HSV-2 (setting [14]), 3/10. Also, the “Survivors/treated (%)” value was “(60%)” in the assay on McKrae strain of HSV-1 (setting [8]); “(90%)” with McKrae strain of HSV-1 (setting [9]); “(30%)” in the assay with G strain of HSV-2 (setting [10]); “(100%)” in the assay with G strain of HSV-2 (setting [11]); “(90%)” with G strain of HSV-2 (setting [12]); “(10%)” in the assay on G strain of HSV-2 (setting [13]). The “Survivors/treated (%)” value in the assay with G strain of HSV-2 (setting [14]) is reported as “(30) %”. In addition, the “efficacy of HBPG alone” value with McKrae strain of HSV-1 (HSV1, 25 or 50 mg/kg HBPG alone) is listed as “no efficacy”; in the assay with G strain of HSV-2 (HSV2, 25 or 50 mg/kg HBPG alone) it was “no efficacy”. In addition, the “amount of viral DNA in the relevant nerve ganglia” value is “reduce the amount of viral DNA” in the assay with HSV1 [1] (mice, HSV1) and “reduce the amount of viral DNA” with HSV2 (HSV2). Moreover, the “frequency of hyperthermia-induced HSV1 reactivation” value in the assay with HSV1 [1] (mice) is reported as “reduce the frequency”. Also, the “preventing recurrence of ocular HSV1 disease” value with HSV1 [1] (mouse model of latent HSV1 infection) and with HSV1 [2] (squirrel monkey model of latent HSV1 infection) was “clear efficacy” each time. The “frequency of hyperthermia-induced HSV2 reactivation” value with HSV2 was “reduce the frequency”. In addition, in the assay on HSV1 [2] (squirrel monkeys), the “frequency of recurrent ocular HSV1 disease” value is “reduce the frequency”.

For the molecule `O=c1[nH]c(Nc2ccccc2)nc2c1ncn2[C@H]1C[C@H](O)[C@@H](CO)O1` [PhdG, N^2-phenyl-2′-deoxyguanosine], the “number of ganglia producing virus compared to control ganglia” value with HSV1 [3] is reported as “significantly reduced”.

For the molecule `O=c1[nH]c(Nc2cccc(C(F)(F)F)c2)nc2nc[nH]c12` [m-CF3PG, N^2-(m-trifluoromethylphenyl)guanine], in the assay with HSV1 [3], the “number of ganglia producing virus compared to control ganglia” value is listed as “significantly reduced”.

Regarding `Nc1ccn(C[C@@H](CO)OCP(=O)(O)O)c(=O)n1` [cidofovir], the Survivors/treated is on record as 0/10 with McKrae strain of HSV-1 (setting [15]); 3/10 in the assay with McKrae strain of HSV-1 (setting [16]); 9/10 with McKrae strain of HSV-1 (setting [17]); 0/10 with G strain of HSV-2 (setting [18]); 4/10 with G strain of HSV-2 (setting [19]); 10/10 with G strain of HSV-2 (setting [20]). Besides, the “Survivors/treated (%)” value in the assay on McKrae strain of HSV-1 (setting [15]) is 0%; with McKrae strain of HSV-1 (setting [16]) it was 30%; in the assay on McKrae strain of HSV-1 (setting [17]) it was 90%; in the assay on G strain of HSV-2 (setting [18]), 0%; in the assay on G strain of HSV-2 (setting [19]), 40%; in the assay on G strain of HSV-2 (setting [20]), 100%. Besides, the median effective dose was 2.5 to 5 mg/kg in the assay on McKrae strain of HSV-1 (HSV1 encephalitis, ip twice daily for five days) and 2.5 to 5 mg/kg in the assay on G strain of HSV-2 (HSV2 encephalitis, ip twice daily for five days).

As for `O=C(O)P(=O)(O)O` [foscarnet, phosphonoformate], the “Survivors/treated (%)” value is “(10%)” with McKrae strain of HSV-1 (HSV1, 100 mg/kg ip twice daily, 5 days); “(50%)” with McKrae strain of HSV-1 (setting [8]); “(70%)” in the assay with McKrae strain of HSV-1 (setting [9]); “(0%)” in the assay with G strain of HSV-2 (setting [10]); “(40%)” with G strain of HSV-2 (setting [11]); “(60%)” in the assay with G strain of HSV-2 (setting [12]). For the same molecule, in the assay on G strain of HSV-2 (setting [13]), the “Survivors/treated (%)” value is “(0%)”. The Survivors/treated with McKrae strain of HSV-1 (setting [7]) was 1/10; in the assay on G strain of HSV-2 (setting [10]), 0/10; in the assay on G strain of HSV-2 (setting [13]) it was 0/10.
